Data set [1] concerns the target T1, IFN-beta (Homo sapiens, UniProt P01574, C38S).
T1 construct: made in house; host or cells: E. coli K12/MM294-1 carrying plasmid pSY2501 (ATCC 39,517)
The data set is described as follows: Keeping IFN-beta soluble as guanidine HCl is removed by dialysis; supernatant and pellet analysed by SDS-PAGE and silver stain. It is filed as physicochemical. Also noted: key to Successful (+)/ Unsuccessful (-): Successful (+); Unsuccessful (-). Particulars: for Successful (+)/ Unsuccessful (-): dialysis against sodium phosphate buffer pH 5.0; for keeping IFN-beta in solution: 15% PEG300, 25% glycerol, 50% sucrose, 20% isopropanol. As for the experimental part: At this point, a stabilizing additive was added to the oxidized IFN-beta material while guanidine HCl is still present, and the solution was dialyzed to remove the guanidine. The solubilized, oxidized material was divided into aliquots and a different stabilizing agent or a non-ionic detergent was added to each aliquot. A summary of the stabilizing agents and non-ionic detergents used in this example, as well as the concentration used, is provided in Table 1.
Each aliquot was dialyzed against 20-50 mM sodium phosphate buffer, pH 5.0 containing the appropriate stabilizer or detergent. […] Dialysis was run at pH 5.0 because rIFN-beta is more soluble at low pH than at neutral or higher pH. As the guanidine HCl was dialyzed from the sample, a precipitate formed. The aliquots were centrifuged at 5,000 x g for 15 min and both the supernatant and the pellet, resuspended in 1% SDS, were saved. The supernatant and resuspended pellet were analyzed by SDS-PAGE (PHAST system by Pharmacia) and silver stain to locate the rIFN-beta.

For data set [2], the target named is T1, IFN-beta. As to the kind of experiment: Absorbance at 280 nm in supernatant after dialysis against glycerol, with varied concentration and pH. It counts as physicochemical. Particulars: for % A₂₈₀ in Supernatant: 25 mM NaPi.

Consider 8 molecules from EP0360937B1, “Improved process for recovering microbially produced interferonbeta” (CETUS ONCOLOGY CORPORATION, priority 1988, dated 1990).

T1 sequence (P01574 23-187 C38S limits assumed): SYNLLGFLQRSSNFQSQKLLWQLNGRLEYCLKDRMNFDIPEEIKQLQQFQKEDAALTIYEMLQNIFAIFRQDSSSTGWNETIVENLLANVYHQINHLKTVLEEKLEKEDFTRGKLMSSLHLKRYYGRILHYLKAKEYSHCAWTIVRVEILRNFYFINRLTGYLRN

In the case of `CC(O)CO` (centres unmarked) [Propylene Glycol], the “Successful (+)/ Unsuccessful (-)” value on IFN-beta [1] (reagent at 20%) is reported as “-”.
Still for that read-out and setting: to `OCCO` [Ethylene Glycol] belongs “-”.
Take `OCC(O)COc1ccccc1` (centres unmarked) [3-phenoxy-1,2-propanediol]: the “Successful (+)/ Unsuccessful (-)” value on IFN-beta [1] (reagent at 5%) is reported as “-”.
Consider `CCC(O)CO` (centres unmarked) [1,2-butanediol], for which the “Successful (+)/ Unsuccessful (-)” value on IFN-beta [1] (reagent at 20%) is “-”.
As to `OC[C@H]1O[C@@](CO)(O[C@H]2O[C@H](CO)[C@@H](O)[C@H](O)[C@H]2O)[C@@H](O)[C@@H]1O` [Sucrose], on IFN-beta [1], the “keeping IFN-beta in solution” value was “keep IFN-beta in solution”.
With `OCC(O)CO` [Glycerol], the “% A₂₈₀ in Supernatant” value was determined as 31% at IFN-beta [2] (25%, pH 4); 13% at IFN-beta [2] (25%, pH 5); 86% on IFN-beta [2] (50%, pH 4); 50% at IFN-beta [2] (50%, pH 5). On IFN-beta [2] (concentration increased to 50% and pH lowered to 4), the “IFN-beta solubility on adjusting concentration and pH” value is on record as “greater IFN-beta solubility”. In addition, the “keeping IFN-beta in solution” value at IFN-beta [1] is given as “keep IFN-beta in solution”.
As for Tween® 80, at IFN-beta [1] (0.01% detergent with 25% glycerol at pH 4, A280 and SDS-PAGE), the “keeping IFN-beta in solution, detergent combined with glycerol” value is on record as “keep most of the IFN-beta in solution”.
As to `CC(C)O` [Isopropanol], the “keeping IFN-beta in solution” value on IFN-beta [1] was “keep IFN-beta in solution”. Also, at IFN-beta [1] (reagent at 50%), the “Successful (+)/ Unsuccessful (-)” value was “+”.
